Where “and” joins values, the source holds several entries; their conditions need not be identical. Equal values may be shown once. Read-outs that look alike come from different tables or passages of the source.

Data set [1] is described as follows: Total reducing power (TRP) assay. Here is the method:
A TRP assay was carried out to evaluate the reducing potential of synthetic compounds. The method implicates reductones. These reductones are species with antioxidant potential that is believed to be due to their proton-donating capacity. […] The maximum value of reducing power was 104.7 ± 1.9 µg/AAE for SF5, followed by 103.18 ± 2.4 µg/AAE for SF7 and 84.57 ± 1.9 µg/AAE for SF12 (Figure 3 and Figure 4 (standard curve)).
The assay is based on the reduction of Fe^+3 to Fe^+2. The method described by Khan et al. was used with slight modifications. One hundred microliters of test samples (4 mg/mL DMSO) were taken in an Eppendrof tube and 200 μL of phosphate buffer (0.2 mol/L, pH 6.6) and 250 µL of 1% potassium ferricyanide (K3Fe CN)6) were added. This was allowed to incubate at 50 °C for 20 min. Later on, 200 μL of 10% trichloroacetic acid (TCA) was added to the mixture. The mixture was centrifuged at 3000 rpm at room temperature for 10 min. After centrifugation, 150 µL of supernatant were transferred to microplate with FeCl3 (50 μL, 0.1%) and the absorbance was taken at 630 nm. The results were calculated as µg AAE/mg.

The subject of data set [2] is brine shrimp nauplii. In words: Brine shrimp lethality bioassay. Type of data set: in vivo. Particulars: 24 h, n = 3. A digest of the protocol: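 Ten hatched nauplii per well in artificial seawater were exposed to test compounds at 400, 200, 100 and 50 µg/mL under a lamp. Survivors counted after 24 h; percentage mortality calculated; triplicate.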
Data set [3] is described as follows: MTT cytotoxicity against raw macrophages. Type of data set: cell-based, albino rats. Particulars: rat; for viability at 24 h, 1 µM / viability at 24 h, 10 µM / viability at 24 h, 50 µM / viability at 24 h, 100 µM: peritoneal macrophages (raw macrophages), raw macrophages, MTT, read-out: % Cell Viability; for IC50 at 24 h: primary peritoneal macrophages, mean ± SEM, n = 3. In a few lines:
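Peritoneal macrophages from albino rats were treated for 24 h at 37 °C, 5% CO2 with test compounds at 100, 50, 10 and 1 µM or vehicle, from DMSO stocks. MTT was then added for 2 h, formazan dissolved in DMSO and absorbance read at 570 nm. % viability = blank-corrected sample over blank-corrected control ×100.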

In data set [4] the test system is Hep-2C cells. As to the kind of experiment: MTT assay against Hep-2C cells. Type of data set: cell-based, Human. Conditions: Homo sapiens, Hep2C, read-out: IC50 (Mean ± SEM) Hep-2C Cells. In a few lines: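 Human cervix carcinoma Hep-2C cells in DMEM with 10% FCS, seeded at 1 × 10^6 and exposed to test compounds for 24, 48 and 72 h. MTT (1 mg per mL) added for 4 h, formazan dissolved in DMSO, absorbance at 570 nm. Viability % versus untreated cells after blank subtraction.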
(Tetrazolium dyes change colour on reduction, which living cells bring about.)

Data set [5] deals with NO generated by LPS-induced macrophages. As to the kind of experiment: Nitric oxide assay (Griess) in LPS-induced macrophages. Type of data set: cell-based, murine. Particulars: Mus musculus, Macrophage, 18 h, LPS 1 µg/mL, read-out: % NO Production (Mean ± SEM). A digest of the protocol: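 Murine macrophages (1 × 10^6/well) pre-treated 2 h with compound at 100, 50, 10 or 1 µM, then LPS 1 µg/mL for 18 h. Nitrite in medium measured with Griess reagent at 540 nm against a NaNO2 standard curve; piroxicam as positive control, t-test for significance.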
A general note: Nitrite, measured by Griess reagent, commonly stands in for NO production.

Broadly, the viability is the share of living cells, or the viability signal relative to a control. What is called IC50 is the concentration that gives 50% inhibition. For `c1ccc2c(c1)CCCN2CN1CCCCC1` [SF1, 1-(Piperidine-1-ylmethyl) 1,2,3,4-tetrahahydroquinoline], in data set [1], the “Total reducing power (TRP)” value amounted to 33.22 ± 1.5 µg/AAE. Moreover, the “LD50 ± SEM (brine shrimp lethality)” value in data set [2] was 120 ± 2.3 µg/mL and 120.8 ± 2.3 µg/mL. Further, in data set [3] (albino), the viability at 24 h, 1 µM came to 58 ± 0.76%; the viability at 24 h, 10 µM amounted to 48 ± 1.34%; the viability at 24 h, 50 µM turned out to be 47 ± 0.84%; the viability at 24 h, 100 µM came to 44.7 ± 0.5%. The IC50 at 24 h in data set [3] (albino) came to 6.232 ± 0.01 µM. Further, the IC50 in data set [4] (24 h) was determined as 28 ± 1.07 µM. Further, in data set [4] (48 h), the IC50 was found to be 21.8 ± 1.1 µM. Moreover, in data set [4] (72 h), the IC50 is 14.8 ± 1.07 µM. Further, in data set [5], the activity at 1 µM is 27.8 ± 0.45%, the activity at 10 µM was 26 ± 0.43%, the activity at 50 µM was 23.7 ± 0.41% and the activity at 100 µM amounted to 17.3 ± 0.35%.

Regarding `CN1CCN(CN2CCCc3ccccc32)CC1` [SF5], the “Total reducing power (TRP)” value in data set [1] is listed as 104.7 ± 1.9 µg/AAE. For the same compound, the “LD50 ± SEM (brine shrimp lethality)” value in data set [2] is listed as 94 ± 1.06 µg/mL. In data set [3] (albino), the viability at 24 h, 1 µM amounted to 98 ± 1.01%; the viability at 24 h, 10 µM came out at 74 ± 0.42%; the viability at 24 h, 50 µM amounted to 67 ± 0.84%; the viability at 24 h, 100 µM was 60 ± 1.2%. The same compound registered an IC50 at 24 h in data set [3] (albino) of 6.181 ± 0.05 µM. Besides, in data set [4] (24 h), the IC50 came out at 21.3 ± 1.09 µM. In addition, in data set [4] (48 h), the IC50 came to 18 ± 1.05 µM. The IC50 in data set [4] (72 h) is 16.8 ± 1.07 µM. In data set [5], the activity at 1 µM was determined as 51.43 ± 0.48%, the activity at 10 µM was found to be 43 ± 0.45%, the activity at 50 µM was 28.6 ± 0.44% and the activity at 100 µM turned out to be 21.9 ± 0.38%.

Take `c1ccc(N(CN2CCCc3ccccc32)c2ccccc2)cc1` [SF7, N-((3,4-dihydroquinolin-1(2H)-yl)methyl)-N-phenylaniline]: the “Total reducing power (TRP)” value in data set [1] was found to be 103.18 ± 2.4 µg/AAE. Moreover, the “LD50 ± SEM (brine shrimp lethality)” value in data set [2] is recorded as 100.8 ± 1.14 µg/mL. Also, in data set [3] (albino), the viability at 24 h, 1 µM turned out to be 96 ± 0.89%; the viability at 24 h, 10 µM came out at 95 ± 0.96%; the viability at 24 h, 50 µM was 84 ± 0.77%; the viability at 24 h, 100 µM was 58 ± 0.83%. In data set [3] (albino), the IC50 at 24 h was determined as 18.64 ± 0.13 µM. In addition, in data set [3], half-maximal inhibition (IC50 at 24 h) required 18.6 ± 0.13 µM. Also, in data set [4] (24 h), the IC50 was determined as 26.7 ± 1.1 µM. In data set [4] (48 h), the IC50 is 21.6 ± 1.05 µM. Further, the IC50 in data set [4] (72 h) turned out to be 16.8 ± 1.03 µM. In data set [5], the activity at 1 µM came to 69.71 ± 0.65%, the activity at 10 µM was 63.12 ± 0.61%, the activity at 50 µM was 21.4 ± 0.48% and the activity at 100 µM came out at 17.5 ± 0.45%.

Source of the values: article PMC7321408, “One-Pot Multicomponent Synthesis and Bioevaluation of Tetrahydroquinoline Derivatives as Potential Antioxidants, α-Amylase Enzyme Inhibitors, Anti-Cancerous and Anti-Inflammatory Agents” (Molecules, 2020).
